Experiment [1] has as its system formalin-induced flinching. As to the kind of experiment: rat model of tonic inflammatory pain (the formalin test). The format is in vivo. The conditions noted are these: intraperitoneal, 3.6-3600 μg/kg, 15 minutes prior to formalin, phase 1 and 2, FIGS. 1 and 2. As for the experimental part:
A rat model of tonic inflammatory pain (the formalin test) was used in this study (Wheeler-Aceto and Cowan, 1991). Fifty μl of formalin (5%) was injected subcutaneously (SC) into the dorsal surface of the left hind paw. This procedure typically produces a biphasic behavioral response consisting of flinching, lifting and licking. The first phase (0-10 minutes) results from direct stimulation of nociceptors (nociceptive pain) whereas the second phase (20-60 minutes) is thought to involve central sensitization. Rats (3/dose) were pretreated 15 minutes prior to formalin (SC) injection with ZZ-204G (3.6-3600 μg/kg) administered by the IP route. ZZ-204G is as below:
Saline served as control. Incidences of formalin-induced flinching were counted continuously in 5 minute intervals for 60 minutes. Each rat received only one treatment.

Experiment [2] relates to mechanical hyperalgesia in CCI rats. Briefly: rat chronic constriction nerve injury (CCI) model of neuropathic pain, paw pressure test. In kind it is in vivo. The conditions noted are these: intraperitoneal, 3.6-3600 μg/kg, 15-120 minutes after injection, FIGS. 3 and 4. As for the experimental part:
A rat model of neuropathic pain (the chronic constriction nerve injury model; CCI) was used. Unilateral peripheral mononeuropathy was produced on the left hind limb according to the method described by Bennett and Xie (1988). Under pentobarbital anesthesia (40 mg/kg, IP) ligation of the siatic nerve and sham surgery were performed in each rat on the left and right hind paws, respectively. Proximal to the sciatice trifurcation, the nerve (about 7 mm) was freed from adhering tissue and four loose ligatures were tied around the nerve (1 mm apart) using 4.0 chromic catgut, barely constricting the diameter of the nerve. In sham surgery, the right sciatic nerve was exposed using the same procedure, but the nerve was not ligated. The incision was closed in layers with silk thread 3.0. […] No severe motor impairment was observed.
The presence of a decreased threshold to mechanical noxious stimuli (mechanical hyperalgesia) was evaluated by the Randal and Selitto (1957) method (paw pressure test) in CCI rats. The hind paw was placed between a flat surface and a blunt pointer in the Basile Analgesimeter (UGO Basile, Italy) and increasing pressure (32 g/s) was applied to the dorsal side of the paw. Vocalization was used as the end point (vocalization threshold, VT, g). […] Responses were assessed prior to (baseline, taken twice) and at 15, 30, 45, 60 and 120 minutes after injection. […]

In the case of `C(#Cc1cc(C#CCCC[n+]2cccc(-c3ccccc3)c2)c(C#CCCC[n+]2cccc(-c3ccccc3)c2)cc1C#CCCC[n+]1cccc(-c2ccccc2)c1)CCC[n+]1cccc(-c2ccccc2)c1.[Br-].[Br-].[Br-].[Br-]` [ZZ-204G], the “analgesic effect in the rodent formalin tonic inflammatory pain model (formalin-induced flinching)” value in experiment [1] is reported as “analgesic effect”. The “antihyperalgesic effect in the rodent chronic constriction nerve injury model (vocalization threshold, paw pressure test)” value in experiment [2] is “antihyperalgesic effect”.

(Values after patent publication US20100173937A1, “USE OF TETRAKIS-QUATERNARY AMMONIUM SALTS AS PAIN MODULATING AGENTS” (University of Kentucky Research Foundation, priority 2008, published 2010).)
